{"source": "patent US7960382B2", "about": "“Compounds and their use related to compositions for treating disease” (Allergan, Inc., priority 2005, dated 2011)", "key": {"[1]": {"experiment": "Formation of the compound in a brimonidine tartrate / timolol maleate composition stored at ambient temperature (age of composition)", "type": "physicochemical", "settings": "for Compound Concentration (% weight/vol): composition initially 0.2% brimonidine tartrate and 0.68% timolol maleate, pH 6.9, ambient temperature", "procedure": "The compound disclosed herein can also be used to estimate the age of a composition, stored at ambient temperature, initially comprising brimonidine tartrate and timolol maleate of known amounts and having a pH of 6.9. The age of the […] (λ) in months is determined by equation 3, where B^o, T^o, and C^o are the initial concentrations of brimonidine, timolol maleate, and the compound respectively, in % (w/v). λ=C^o/(1.1×10^−3(B^oT^o)) [eq. 3] Equation 3 is an approximation which assumes that B^o and T^o>>C^o. If that is not the case, the age is determined using the rate constant k=1.1×10^−3 month^−1%^−1 and the appropriate rate expression.\nIf the composition initially comprises 0.2% brimonidine tartrate and 0.68% timolol maleate. The age of the composition may be determined according to Table 2 below. Alternatively, up to about 36 months, the age is determined by multiplying the concentration of the compound in % (w/v) by 9100."}, "microbial attack [2]": {"tested_on": "microbial attack", "experiment": "Preservation of ophthalmic compositions from microbial attack", "settings": "brimonidine/timolol compositions of the invention", "from_the_text": "Ophthalmic products are typically packaged in multidose form. Preservatives are thus required to prevent microbial contamination during use. Suitable preservatives include: benzalkonium chloride, thimerosal, chlorobutanol, methyl paraben, propyl paraben, phenylethyl alcohol, edetate disodium, sorbic acid, Onamer M, or other agents known to those skilled in the art. In the prior art ophthalmic products, typically such preservatives are employed at a level of from 0.004% to 0.02%. In the compositions of the present application the preservative, preferably benzalkonium chloride, may be employed at a level of from 0.001% to less than 0.01%, e.g. from 0.001% to 0.008%, preferably about 0.005% by weight. […] This concentration may be advantageously compared to the requirement of 0.01% benzalkonium chloride to preserve timolol in the individual, commercially-available ophthalmic products."}, "microbial attack [3]": {"tested_on": "microbial attack", "settings": "cited from earlier work"}}}
{"compound": "O=C(O)C1CC(=O)N2CCN=C2N1c1ccc2nccnc2c1Br", "note": "(stereo not drawn) [Compound, 8-(5-bromoquinoxalin-6-yl)-5-oxo-2,3,5,6,7,8-hexahydroimidazo[1,2-a]pyrimidine-7-carboxylic acid]", "values": [{"measurement": "Compound Concentration (% weight/vol)", "setting": "[1]; Age 1 month", "result": 0.0001, "unit": "% weight/vol"}, {"measurement": "Compound Concentration (% weight/vol)", "setting": "[1]; Age 2 months", "result": 0.0002, "unit": "% weight/vol"}, {"measurement": "Compound Concentration (% weight/vol)", "setting": "[1]; Age 3 months", "result": 0.0003, "unit": "% weight/vol"}, {"measurement": "Compound Concentration (% weight/vol)", "setting": "[1]; Age 4 months", "result": 0.0004, "unit": "% weight/vol"}, {"measurement": "Compound Concentration (% weight/vol)", "setting": "[1]; Age 5 months", "result": 0.0006, "unit": "% weight/vol"}, {"measurement": "Compound Concentration (% weight/vol)", "setting": "[1]; Age 6 months", "result": 0.0007, "unit": "% weight/vol"}, {"measurement": "Compound Concentration (% weight/vol)", "setting": "[1]; Age 7 months", "result": 0.0008, "unit": "% weight/vol"}, {"measurement": "Compound Concentration (% weight/vol)", "setting": "[1]; Age 8 months", "result": 0.0009, "unit": "% weight/vol"}, {"measurement": "Compound Concentration (% weight/vol)", "setting": "[1]; Age 9 months", "result": 0.001, "unit": "% weight/vol"}, {"measurement": "Compound Concentration (% weight/vol)", "setting": "[1]; Age 10 months", "result": 0.0011, "unit": "% weight/vol"}, {"measurement": "Compound Concentration (% weight/vol)", "setting": "[1]; Age 11 months", "result": 0.0012, "unit": "% weight/vol"}, {"measurement": "Compound Concentration (% weight/vol)", "setting": "[1]; Age 12 months", "result": 0.0013, "unit": "% weight/vol"}, {"measurement": "Compound Concentration (% weight/vol)", "setting": "[1]; Age 13 months", "result": 0.0014, "unit": "% weight/vol"}, {"measurement": "Compound Concentration (% weight/vol)", "setting": "[1]; Age 14 months", "result": 0.0016, "unit": "% weight/vol"}, {"measurement": "Compound Concentration (% weight/vol)", "setting": "[1]; Age 15 months", "result": 0.0017, "unit": "% weight/vol"}, {"measurement": "Compound Concentration (% weight/vol)", "setting": "[1]; Age 16 months", "result": 0.0018, "unit": "% weight/vol"}, {"measurement": "Compound Concentration (% weight/vol)", "setting": "[1]; Age 17 months", "result": 0.0019, "unit": "% weight/vol"}, {"measurement": "Compound Concentration (% weight/vol)", "setting": "[1]; Age 18 months", "result": 0.0020, "unit": "% weight/vol"}, {"measurement": "Compound Concentration (% weight/vol)", "setting": "[1]; Age 19 months", "result": 0.0021, "unit": "% weight/vol"}, {"measurement": "Compound Concentration (% weight/vol)", "setting": "[1]; Age 20 months", "result": 0.0022, "unit": "% weight/vol"}, {"measurement": "Compound Concentration (% weight/vol)", "setting": "[1]; Age 21 months", "result": 0.0023, "unit": "% weight/vol"}, {"measurement": "Compound Concentration (% weight/vol)", "setting": "[1]; Age 22 months", "result": 0.0024, "unit": "% weight/vol"}, {"measurement": "Compound Concentration (% weight/vol)", "setting": "[1]; Age 23 months", "result": 0.0026, "unit": "% weight/vol"}, {"measurement": "Compound Concentration (% weight/vol)", "setting": "[1]; Age 24 months", "result": 0.0027, "unit": "% weight/vol"}, {"measurement": "rate constant k (formation of the compound from brimonidine tartrate and timolol maleate)", "setting": "[1]; composition stored at ambient temperature, pH 6.9", "result": "1.1×10^−3 month^−1%^−1"}]}
{"compound": "benzalkonium chloride", "values": [{"measurement": "concentration sufficient to preserve the compositions of the present invention from microbial attack", "setting": "microbial attack [2]", "result": 0.005, "unit": "%"}, {"measurement": "concentration required to preserve timolol in the individual, commercially-available ophthalmic products", "setting": "microbial attack [3]", "result": 0.01, "unit": "%"}]}
